Patent US20230348450A1, “CARBOXYLIC ACID-CONTAINING COMPOUNDS AS MODULATORS OF BIS-PHOSPHOGLYCERATE MUTASE FOR THE TREATMENT OF SICKLE CELL DISEASE” (Genzyme Corporation, priority 2020, published 2023)

How the values were obtained:
[1] = biological target: hBPGM (Homo sapiens (Human), UniProt P07738); test: BPGM Synthase Assay; type: biochemical; details: Table 6 additional results; read-out: huBPGM: synthase Enzyme IC50
Experimental: Example B1. BPGM Synthase Assay
The following materials were used in this assay: deionized water; Bisphosphoglycerate mutase (BPGM; Standard Buffer: 50 mM Tris, 0.01% Tween 20, pH 7.4); BPGM Reaction Buffer (50 mM Tris, 0.01% Tween 20, 3.23 mM KH2PO4, pH 7.4); dithiothreitol (DTT; Stock solution: 100 mM in Standard Buffer); 384-Well Black Assay Plate (Corning, P/N 3575); DMSO; BPGM Stock Solution (500 nM in BPGM Standard Buffer); Glyceraldehyde 3-phosphate dehydrogenase (GAPDH; Stock Solution: 40 U/mL in 20 mM Tris-HCL Buffer with 20% Glycerol, 1 mM EDTA, 1 mM DTT); Glyceraldehyde 3-phosphate (GAP; Stock Solution: 20 mM in BPGM Standard Buffer); 3-PG Stock Solution (500 μM in BPGM Standard Buffer); Nicotinamide adenine dinucleotide (NAD; Stock Solution: 50 mM in BPGM Standard Buffer); Koningic Acid (1 mM Stock in DMSO); Resazurin Stock Solution (10 mM in DMSO); Diaphorase Stock Solution (40 U/mL in BPGM Standard Buffer); DTT Reaction Buffer (1 mM DTT in BPGM Reaction Buffer); Enzyme Solution (5 nM BPGM, 0.4 U/mL GAPDH in DTT Reaction Buffer); GAPDH Solution (0.4 U/mL GAPDH in DTT Reaction Buffer); Substrate Solution (2 mM NAD, 20 μM 3PG, 800 μM GAP in DTT Reaction Buffer); and Resazurin Solution (5 U/mL Diaphorase, 500 μM Resazurin in BPGM Standard Buffer).
To the assay plate was added Enzyme Solution (20 uL) to columns 2-22 and 24 of the assay plate. To columns 1 and 23 was added GAPDH Solution (20 uL). A separate compound plate was prepared at the desired concentrations and all wells were normalized with 5% DMSO. The compound plate was incubated for 30 minutes at RT. Next, the substrate solution (20 μL) was dispensed to all reaction wells and the plate was incubated for 60 minutes at RT. Koningic acid (1 μL) was added and the plate was incubated for 10 minutes at RT. During this time period, the NADH fluorescence was read at ex: 360/em: 460. Next, Resazurin Solution (10 μL) was added to all reaction wells and the plate was incubated for 30 minutes at RT. The resorufin fluorescence was then read at ex:544/em:590.

[2] = biological target: human Bisphosphoglycerate mutase (hBPGM) (Homo sapiens (Human), UniProt P07738); test: BPGM Phosphatase Assay; type: biochemical; details: Table 6 additional results; read-out: huBPGM: phosphatase Enzyme EC50
human Bisphosphoglycerate mutase (hBPGM), sequence (P07738 whole entry): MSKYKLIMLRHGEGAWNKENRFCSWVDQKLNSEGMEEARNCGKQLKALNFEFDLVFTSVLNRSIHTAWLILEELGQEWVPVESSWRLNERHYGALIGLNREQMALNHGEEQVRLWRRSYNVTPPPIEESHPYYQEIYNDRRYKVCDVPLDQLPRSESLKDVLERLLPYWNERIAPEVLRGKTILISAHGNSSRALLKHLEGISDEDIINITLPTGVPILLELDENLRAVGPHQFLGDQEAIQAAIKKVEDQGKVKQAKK
Experimental: Solutions of the test compounds were then added to the plate and the DMSO content was normalized across the plate. The plate was incubated at RT for 15 min. Next, the substrate 2,3-BPG (5 μL) was added to all the wells, and the plate was sealed and incubated for 24 hr at RT. After incubation, BIOMOL green dye (40 μL) was added to all the wells, the plate was shaken to mix, and the plate was incubated at RT for 20-30 min.

hBPGM, sequence (P07738 whole entry, looked up): as the sequence (P07738 whole entry) above

| Structure (SMILES) | IC50 [1] [µM] | EC50 [2] [µM] |
| --- | --- | --- |
| Cc1nc(Cn2cccn2)sc1-c1csc(-c2cc(O)c(C(=O)O)cc2F)n1 [Example 248] | 0.11 | 0.11 |
| Cc1nc(Cn2cccc(C#N)c2=O)sc1-c1cccc(-c2ccc(C(=O)O)c(O)c2)c1 [Example 100] | 0.56 | 0.42 |
| Cc1nc(COc2cccnc2)sc1-c1cccc(-c2ccc(C(=O)O)c(O)c2)c1 [Example 102] | 0.9 | 0.36 |
| CCOC(=O)NCc1nc(C)c(-c2csc(-c3cc(O)c(C(=O)O)cc3F)n2)s1 [Example 227] | 0.076 | 0.09 |
| Cc1nc(Cc2cccnc2)sc1-c1csc(-c2cc(O)c(C(=O)O)cc2F)c1 [Example 143] | 0.2 | 0.08 |
| Cc1nc(COc2ccccn2)sc1-c1cccc(-c2ccc(C(=O)O)c(O)c2)n1 [Example 128] | 0.19 | 0.079 |
| Cc1nc(CNC(=O)c2cc[nH]n2)sc1-c1csc(-c2cc(O)c(C(=O)O)cc2F)n1 [Example 172] | 0.04 | 0.04 |
| Cc1nc(C)c(-c2cccc(-c3cc(O)c(C(=O)O)cc3F)n2)s1 [Example 259] | 0.57 | > 25 |
| Cc1nc(COC(=O)N2CCCC2)sc1-c1csc(-c2cc(O)c(C(=O)O)cc2F)n1 [Example 154] | 0.17 | 0.04 |
| COC(=O)NCc1nc(C)c(-c2ccnc(-c3ccc(C(=O)O)c(O)c3)n2)s1 [Example 185] | 0.16 | 0.03 |
| Cc1nc(C)c(-c2csc(-c3cc(O)c(C(=O)O)cc3F)n2)s1 [Example 285] | 0.32 | 0.4 |
| Cc1nc(CNC(=O)OCC(F)(F)F)sc1-c1csc(-c2cc(O)c(C(=O)O)cc2F)n1 [Example 136] | 0.31 | 0.09 |
| Cc1cnc(OCc2nc(C)c(-c3csc(-c4cc(O)c(C(=O)O)cc4F)n3)s2)nc1 [Example 132] | 0.045 | 0.05 |
| Cc1nc(Cc2ccccc2)sc1-c1cccc(-c2ccc(C(=O)O)c(O)c2)c1 [Example 289] | 1.2 | 0.13 |
| COC(=O)NCc1nc(C)c(-c2csc(-c3ccc(C(=O)NS(=O)(=O)c4ccc(OCC(=O)O)cc4)cc3)n2)s1 [Example 66] | 0.061 | 0.11 |
| Cc1nc(Cn2cccnc2=O)sc1-c1csc(-c2cc(O)c(C(=O)O)cc2F)n1 [Example 181] | 0.21 | 0.08 |
| COC(=O)NCc1nc(C)c(-c2csc(-c3cc(O)c(C(=O)O)cc3F)n2)s1 [Example 209] | 0.25 | 0.47 |
| Cc1nc(CNc2ncccn2)sc1-c1csc(-c2cc(O)c(C(=O)O)cc2F)n1 [Example 149] | 0.03 | 0.07 |
| Cc1nc(Cc2ccccc2)sc1-c1csc(-c2ccc(C(=O)O)c(O)c2)n1 [Example 280] | 0.33 | 0.14 |
| COC(=O)NCc1nc(C)c(-c2csc(-c3cc(O)c(CC(=O)O)cc3F)n2)s1 [Example 116] | 6.9 | > 25 |
| Cc1nc(CNC2CCCCC2)sc1-c1csc(-c2cc(O)c(C(=O)O)cc2F)n1 [Example 174] | 0.53 | 0.23 |
| Cc1nc(COc2ccccn2)sc1-c1csc(-c2cc(O)c(C(=O)O)cc2F)n1 [Example 163] | 0.17 | 0.06 |
| Cc1nc(CNCC(=O)N(C)C)sc1-c1csc(-c2cc(O)c(C(=O)O)cc2F)n1 [Example 169] | 0.48 | 0.11 |
| Cc1ccnc(NCc2nc(C)c(-c3cccc(-c4ccc(C(=O)O)c(O)c4)c3)s2)c1 [Example 68] | 1.4 | 0.06 |
| Cc1nc(NCC(=O)N(C)C)sc1-c1csc(-c2cc(O)c(C(=O)O)cc2F)n1 [Example 178] | 0.2 | 3.1 |
| Cc1nc(C)c(-c2csc(-c3cc(O)c(C(=O)O)cc3F)c2)s1 [Example 254] | 0.29 | 0.22 |
| Cc1nc(COc2ccccn2)sc1-c1cccc(-c2ccc(C(=O)O)cc2)c1 [Example 72] | 0.48 | > 25 |

| Structure (SMILES) | IC50 [1] [µM] | EC50 [2] [µM] |
| --- | --- | --- |
| Cc1nc(Cn2cccn2)sc1-c1cccc(-c2ccc(C(=O)O)c(O)c2)c1 [Example 286] | 0.81 | 3.1 |
| Cc1nc(Cc2cccnc2)sc1-c1csc(-c2cc(O)c(C(=O)O)cc2F)n1 [Example 228] | 0.087 | 0.055 |
| Cc1nc(N)sc1-c1csc(-c2cc(O)c(C(=O)O)cc2F)n1 [Example 210] | 0.93 | 0.83 |
| Cc1nc(COc2cccc(C#N)n2)sc1-c1cccc(-c2ccc(C(=O)O)c(O)c2)c1 [Example 256] | 0.88 | 0.07 |
| Cc1nc(CNC(=O)C2CCCC2)sc1-c1csc(-c2cc(O)c(C(=O)O)cc2F)n1 [Example 222] | 0.11 | 0.13 |
| Cc1nc(CO)sc1-c1cccc(-c2cc(C(=O)O)cs2)n1 [Example 75] | 4.6 | > 25 |
| Cc1nc(CNC(=O)c2ncccn2)sc1-c1csc(-c2cc(O)c(C(=O)O)cc2F)n1 [Example 192] | 0.049 | 0.12 |
| Cc1nc(CNC(=O)OCCN(C)C)sc1-c1csc(-c2cc(O)c(C(=O)O)cc2F)n1 [Example 114] | 0.15 | 0.17 |
| COC(=O)NCc1nc(C)c(-c2csc(-c3cc(C)c(C(=O)O)c(O)c3)n2)s1 [Example 208] | 0.36 | 0.42 |
| Cc1nc(Cc2ccccc2)sc1-c1cccc(-c2cc(O)c(C(=O)O)cc2F)c1 [Example 105] | 1.6 | 0.29 |
| Cc1nc(COc2cc(C(F)(F)F)nn2C)sc1-c1cccc(-c2ccc(C(=O)O)cc2)n1 [Example 65] | 2.6 | > 25 |
| COC(=O)N[C@@H](C)c1nc(C)c(-c2csc(-c3cc(O)c(C(=O)O)cc3F)n2)s1 [Example 177] | 0.059 | 0.16 |
| Cc1nc(C(=O)c2ccn(C)n2)sc1-c1csc(-c2ccc(C(=O)O)c(O)c2)n1 [Example 190] | 0.36 | 0.61 |
| Cc1ccc(Cc2nc(C)c(-c3csc(-c4cc(O)c(C(=O)O)cc4F)c3)s2)cn1 [Example 98] | 0.17 | 0.1 |
| Cc1nc(Cn2ccccc2=O)sc1-c1cccc(-c2ccc(C(=O)O)c(O)c2)n1 [Example 101] | 0.76 | 7.3 |
| COC(=O)NCc1nc(C)c(-c2nsc(-c3ccc(C(=O)O)c(O)c3)n2)s1 [Example 193] | 0.17 | 0.36 |
| Cc1nc(CNC(=O)C2CCN(C)CC2)sc1-c1csc(-c2cc(O)c(C(=O)O)cc2F)n1 [Example 126] | 0.46 | 0.24 |
| Cc1nc(CNC(=O)c2cccnn2)sc1-c1cccc(-c2ccc(C(=O)O)cc2)c1 [Example 71] | 0.56 | > 25 |
| Cc1nc(CNC(=O)C2CC2)sc1-c1csc(-c2cc(O)c(C(=O)O)cc2F)c1 [Example 233] | 0.078 | 0.11 |
| Cc1cccc(OCc2nc(C)c(-c3cccc(-c4ccc(C(=O)O)c(O)c4)c3)s2)n1 [Example 269] | 2 | 0.27 |
| CC(=O)Nc1nc(C)c(-c2csc(-c3cc(O)c(C(=O)O)cc3F)n2)s1 [Example 194] | 0.25 | 0.14 |
| COC(=O)NCc1nc(C)c(-c2csc(-c3cc(O)c(C(=O)O)cc3C)n2)s1 [Example 130] | 0.07 | 0.04 |
| COCCNCc1nc(C)c(-c2csc(-c3cc(O)c(C(=O)O)cc3F)n2)s1 [Example 175] | 0.52 | 0.32 |
| COC(=O)NCc1nc(C)c(-c2csc(-c3cc(O)c(C(=O)O)cc3F)c2)s1 [Example 161] | 0.059 | 0.079 |
| Cc1nc(COC(=O)N(C)C)sc1-c1cccc(-c2ccc(C(=O)O)cc2)c1 [Example 67] | 0.87 | 0.55 |
| Cc1nc(CNC2CCOC2)sc1-c1cccc(-c2ccc(C(=O)O)cc2)c1 (stereo not drawn) [Example 50] | > 25 | > 25 |
| Cc1nc(COc2ncccn2)sc1-c1csc(-c2cc(O)c(C(=O)O)cc2F)n1 [Example 137] | 0.028 | 0.02 |
